# Compound: CC1=CC(=C(N1C2=CC=C(C=C2)Cl)C)C(=O)CN3CCCCC3 [IU1-47] + C[C@@H](Oc1cc(-c2cnn(C3CCNCC3)c2)cnc1N)c1c(Cl)ccc(F)c1Cl [Crizotinib] (partner 1 µM)
# Experiment: relative viability (nuclei count vs DMSO), 5 days (fraction); higher = more cells survive
# Conditions: first compound 0.08 µM
# How it was run: (§1)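 Dosing by pin tool came one day after lung cancer cell lines were seeded in 1536-well plates, using either one drug or a fixed anchor-drug dose plus five library-drug doses (not always all listed) in √10 steps. After 5 days, nuclei were counted on 4× images. Relative viability is treated-well nuclei count divided by vehicle-well nuclei count, and values are medians of duplicate plates.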
row,Cell Line,relative viability
1,NCI-H1944,1.15
2,NCI-H1975,1.04
3,RERF-LC-KJ,0.805
4,ABC-1,1.12
5,NCI-H358,0.532
6,NCI-H650,0.685
7,PC-3 [JPC-3],1.08

# Same assay, conditions: first compound 0.253 µM
row,Cell Line,relative viability
1,NCI-H1944,1.21
2,NCI-H1975,1.01
3,RERF-LC-KJ,0.86
4,ABC-1,1.13
5,NCI-H358,0.607
6,NCI-H650,0.788
7,PC-3 [JPC-3],0.975

# Same assay, conditions: first compound 0.8 µM
row,Cell Line,relative viability
1,NCI-H1944,1.08
2,NCI-H1975,1
3,RERF-LC-KJ,0.787
4,ABC-1,0.796
5,NCI-H358,0.516
6,NCI-H650,0.695
7,PC-3 [JPC-3],1.08

# Same assay, conditions: first compound 2.53 µM
row,Cell Line,relative viability
1,NCI-H1975,1.01
2,RERF-LC-KJ,0.848
3,NCI-H650,0.71

# Same assay, conditions: first compound 8 µM
row,Cell Line,relative viability
1,NCI-H1944,1.09
2,NCI-H1975,0.845
3,RERF-LC-KJ,0.884
4,ABC-1,0.8
5,NCI-H358,0.495
6,NCI-H650,0.648
7,PC-3 [JPC-3],0.962

# Compound: Cc1nc(C(=O)NCC(=O)O)c(O)c2ccc(Oc3ccccc3)cc12 [FG-4592] + COc1cccc2cc(-c3nc([C@H]4CC[C@H](C(=O)O)CC4)n4ncnc(N)c34)[nH]c12 [OSI-027] (partner 0.5 µM)
# Experiment: as above
# Conditions: first compound 0.08 µM
# How it was run: as §1
row,Cell Line,relative viability
1,NCI-H1944,0.401
2,NCI-H1975,0.693
3,RERF-LC-KJ,0.606
4,ABC-1,0.548
5,NCI-H358,0.695
6,NCI-H650,0.492
7,PC-3 [JPC-3],0.674

# Same assay, conditions: first compound 0.253 µM
row,Cell Line,relative viability
1,NCI-H1944,0.367
2,NCI-H1975,0.605
3,RERF-LC-KJ,0.503
4,ABC-1,0.482
5,NCI-H358,0.664
6,NCI-H650,0.457
7,PC-3 [JPC-3],0.75

# Same assay, conditions: first compound 0.8 µM
row,Cell Line,relative viability
1,NCI-H1944,0.412
2,NCI-H1975,0.75
3,RERF-LC-KJ,0.565
4,ABC-1,0.47
5,NCI-H358,0.83
6,NCI-H650,0.433
7,PC-3 [JPC-3],0.79

# Same assay, conditions: first compound 2.53 µM
row,Cell Line,relative viability
1,NCI-H1944,0.325
2,NCI-H1975,0.652
3,RERF-LC-KJ,0.505
4,ABC-1,0.501
5,NCI-H358,0.702
6,NCI-H650,0.45
7,PC-3 [JPC-3],0.662

# Same assay, conditions: first compound 8 µM
row,Cell Line,relative viability
1,NCI-H1944,0.364
2,NCI-H1975,0.614
3,RERF-LC-KJ,0.567
4,ABC-1,0.4
5,NCI-H358,0.572
6,NCI-H650,0.407
7,PC-3 [JPC-3],0.681

# Compound: CC1=CC(=C(N1C2=CC=C(C=C2)Cl)C)C(=O)CN3CCCCC3 [IU1-47] + C[C@]1(O)C[C@@H](c2nc(-c3ccc4ccc(-c5ccccc5)nc4c3)c3c(N)nccn32)C1 [Linsitinib] (partner 1 µM)
# Experiment: as above
# Conditions: first compound 0.08 µM
# How it was run: as §1
row,Cell Line,relative viability
1,NCI-H1944,1.23
2,NCI-H1975,1.06
3,RERF-LC-KJ,0.889
4,ABC-1,0.887
5,NCI-H358,0.737
6,NCI-H650,0.831
7,PC-3 [JPC-3],0.99

# Same assay, conditions: first compound 0.253 µM
row,Cell Line,relative viability
1,NCI-H1944,1.2
2,NCI-H1975,1.17
3,RERF-LC-KJ,0.865
4,ABC-1,0.768
5,NCI-H358,0.791
6,NCI-H650,0.966
7,PC-3 [JPC-3],0.927

# Same assay, conditions: first compound 0.8 µM
row,Cell Line,relative viability
1,NCI-H1944,1.13
2,NCI-H1975,1.11
3,RERF-LC-KJ,0.872
4,ABC-1,0.986
5,NCI-H358,0.75
6,NCI-H650,0.924
7,PC-3 [JPC-3],0.978

# Same assay, conditions: first compound 2.53 µM
row,Cell Line,relative viability
1,NCI-H1975,0.98
2,RERF-LC-KJ,0.957
3,NCI-H650,0.796

# Same assay, conditions: first compound 8 µM
row,Cell Line,relative viability
1,NCI-H1944,1.1
2,NCI-H1975,0.752
3,RERF-LC-KJ,0.893
4,ABC-1,0.777
5,NCI-H358,0.703
6,NCI-H650,0.875
7,PC-3 [JPC-3],1.04

# Compound: CC1=CC(=C(N1C2=CC=C(C=C2)Cl)C)C(=O)CN3CCCCC3 [IU1-47] + CS(=O)(=O)CCNCc1ccc(-c2ccc3ncnc(Nc4ccc(OCc5cccc(F)c5)c(Cl)c4)c3c2)o1 [Lapatinib] (partner 2 µM)
# Experiment: as above
# Conditions: first compound 0.08 µM
# How it was run: as §1
row,Cell Line,relative viability
1,NCI-H1944,0.835
2,NCI-H1975,0.844
3,RERF-LC-KJ,0.91
4,ABC-1,1.45
5,NCI-H358,0.445
6,NCI-H650,0.854
7,PC-3 [JPC-3],0.47

# Same assay, conditions: first compound 0.253 µM
row,Cell Line,relative viability
1,NCI-H1944,0.845
2,NCI-H1975,0.879
3,RERF-LC-KJ,0.868
4,ABC-1,1.08
5,NCI-H358,0.381
6,NCI-H650,0.934
7,PC-3 [JPC-3],0.46

# Same assay, conditions: first compound 0.8 µM
row,Cell Line,relative viability
1,NCI-H1944,0.779
2,NCI-H1975,0.934
3,RERF-LC-KJ,0.873
4,ABC-1,1.06
5,NCI-H358,0.481
6,NCI-H650,0.656
7,PC-3 [JPC-3],0.509

# Same assay, conditions: first compound 2.53 µM
row,Cell Line,relative viability
1,NCI-H1975,0.883
2,RERF-LC-KJ,0.835
3,ABC-1,0.821
4,NCI-H650,1.03

# Same assay, conditions: first compound 8 µM
row,Cell Line,relative viability
1,NCI-H1944,0.801
2,NCI-H1975,0.846
3,RERF-LC-KJ,0.829
4,ABC-1,1.12
5,NCI-H358,0.456
6,NCI-H650,0.74
7,PC-3 [JPC-3],0.461
